Earlier results on one compound are cited in PMC6138493 (British Journal of Clinical Pharmacology, 2018).

For this series the following is noted: after intravenous administration; ref Onasch et al. 24.

Turning to `NCCc1ccc(O)c(O)c1` [DA, dopamine], the “Elimination half‐life of DA in plasma” value was “a few minutes”.
